From ChEMBL document CHEMBL1125506, “Fluoronaphthyridines as antibacterial agents. 6. Synthesis and structure-activity relationships of new chiral 7-(1-, 3-, 4-, and 6-methyl-2,5-diazabicyclo[2.2.1]heptan-2-yl)naphthyridine analogues of 7-[(1R,4R)-2,5- diazabicyclo[2.2.1]heptan-2-yl]-1-(1,1-dimethylethyl)-6-fluoro-1,4-dihy …” (J Med Chem, 1992)
In brackets after ≈: the same amount, converted by molar mass.

Columns and labels:
Mus musculus [1] = assay: In vivo efficacy on systemic infections caused by Staphylococcus aureus A15090 in mice after intramuscular administration; format: functional; conditions: im, read-out: PD50
Streptococcus pneumoniae = assay: In vitro antibacterial activity against Streptococcus pneumoniae A9585.; format: functional
[2] = Solubility (water, 22C, pH 7.2); format: physicochemical; conditions: read-out: S
Mus musculus [3] = assay: In vivo efficacy on systemic infections caused by Pseudomonas aeruginosa A9843 after peroarl administration in mice; format: functional; conditions: read-out: PD50
Bacteroides fragilis = assay: In vitro antibacterial activity against Bacteroides fragilis A-22,862; format: functional
Escherichia coli = assay: In vitro antibacterial activity against Escherichia coli A15119; format: functional
Serratia marcescens = assay: In vitro antibacterial activity against Serratia marcescens A20019; format: functional
Proteus mirabilis = assay: In vitro antibacterial activity against Proteus mirabilis A9900; format: functional
Mus musculus [4] = assay: In vivo efficacy on systemic infections caused by Streptococcus pneumoniae A9585 in mice after peroral administration; format: functional; conditions: po, read-out: PD50
Morganella morganii = assay: In vitro antibacterial activity against Morganella morganii A15153; format: functional
Mus musculus [5] = assay: In vivo efficacy on systemic infections caused by Staphylococcus aureus A15090 in mice after peroral administration; format: functional; conditions: po, read-out: PD50
Enterococcus faecalis = assay: In vitro antibacterial activity against Enterococcus faecalis A9809; format: functional
[6] = Partition coefficient (logD); format: physicochemical; conditions: octanol/water
Mus musculus [7] = assay: In vivo efficacy on systemic infections caused by Pseudomonas aeruginosa A9843 in mice after intramuscular administration; format: functional; conditions: im, read-out: PD50
Enterobacter cloacae = assay: In vitro antibacterial activity against Enterobacter cloacae A9656; format: functional
Klebsiella pneumoniae = assay: In vitro antibacterial activity against Klebsiella pneumoniae A9664; format: functional
Mus musculus [8] = assay: In vivo efficacy on systemic infections caused by Streptococcus pneumoniae A9585 in mice after intramuscular administration; format: functional; conditions: im, read-out: PD50
Staphylococcus aureus = assay: In vitro antibacterial activity against Staphylococcus aureus A9537; format: functional
Pseudomonas aeruginosa = assay: In vitro antibacterial activity against Pseudomonas aeruginosa A9843; format: functional
[9] = Acute toxicity after peroral administration to mice; format: organism-based; conditions: mouse, in vivo, po
[10] = (§1) percent urinary recovery in 24 hr after intravenous administration to mice; format: ADME, organism-based; conditions: mouse, urine, read-out: UR
[11] = Peak concentration in blood after peroral administration to mice; format: ADME, organism-based; set-up: route oral; conditions: mouse, po
[12] = Plasma half-life after intravenous administration to mice; format: ADME, organism-based; conditions: mouse
[13] = Percent urinary recovery in 24 hr after peroral administration to mice; format: ADME, organism-based; conditions: mouse, urine, po; read-out: UR
[14] = Peak concentration in blood after intravenous administration to mice; format: ADME, organism-based; set-up: route intravenous; conditions: mouse
Mus musculus [15] = assay: Area under curve measured as conc vs time after intravenous administration to mice.; format: ADME, organism-based; set-up: unit not given here; conditions: in vivo
Mus musculus [16] = assay: In vivo efficacy on systemic infections caused by Pseudomonas aeruginosa A9843 in mice after peroral administration; format: functional; conditions: po, read-out: PD50
[17] = Plasma half-life after peroral administration to mice; format: ADME, organism-based; conditions: mouse, po
Mus musculus [18] = assay: In vivo efficacy on systemic infections caused by Escherichia coli A15119 in mice after intramuscular administration; format: functional; conditions: im, read-out: PD50
[19] = Acute toxicity after intravenous administration to mice; format: organism-based; conditions: mouse, in vivo
Mus musculus [20] = assay: Area under curve measured as conc vs time after peroral administration to mice.; format: ADME, organism-based; set-up: unit not given here; conditions: in vivo, po
Mus musculus [21] = assay: In vivo efficacy on systemic infections caused by Escherichia coli A15119 in mice after peroral administration; format: functional; conditions: po, read-out: PD50
Mus musculus [22] = assay: as §1; format: functional, Urine

Compound	ED50 (Mus musculus [1])	MIC (Streptococcus pneumoniae)	solubility [2]	MIC (Bacteroides fragilis)	MIC (Escherichia coli)	MIC (Serratia marcescens)	MIC (Proteus mirabilis)	ED50 (Mus musculus [4])	MIC (Morganella morganii)	ED50 (Mus musculus [5])	MIC (Enterococcus faecalis)	logD [6]	ED50 (Mus musculus [7])	MIC (Enterobacter cloacae)	MIC (Klebsiella pneumoniae)	ED50 (Mus musculus [8])	MIC (Staphylococcus aureus)	MIC (Pseudomonas aeruginosa)	Cmax [11]	dose excreted at 24 h [13]	other results
C[C@@H]1N[C@@H]2C[C@H]1N(c1nc3c(cc1F)c(=O)c(C(=O)O)cn3-c1ccc(F)cc1F)C2.Cl	1 mg/kg	1 µg/mL	15 µg/mL	4 µg/mL	0.03 µg/mL	0.25 µg/mL	0.5 µg/mL	> 50 mg/kg	0.5 µg/mL	1.4 mg/kg	1 µg/mL	-0.14	2.4 mg/kg	0.13 µg/mL	0.13 µg/mL	> 50 mg/kg	0.06 µg/mL	1 µg/mL	–	–	ED50 (Mus musculus [3]): 3.1 mg/kg
Cc1c(F)c(N2C[C@H]3C[C@@H]2CN3)nc2c1c(=O)c(C(=O)O)cn2C1CC1	2.4 mg/kg	0.06 µg/mL (≈ 0.167 µM)	20 µg/mL (≈ 55.8 µM)	1 µg/mL (≈ 2.79 µM)	0.02 µg/mL (≈ 0.0558 µM)	0.006 µg/mL (≈ 0.0167 µM)	0.03 µg/mL (≈ 0.0837 µM)	43.5 mg/kg	0.03 µg/mL (≈ 0.0837 µM)	5.4 mg/kg	0.06 µg/mL (≈ 0.167 µM)	0.48	–	0.002 µg/mL (≈ 0.00558 µM)	0.008 µg/mL (≈ 0.0223 µM)	> 25 mg/kg	0.016 µg/mL (≈ 0.0446 µM)	0.006 µg/mL (≈ 0.0167 µM)	9000 ng/mL	34%	LD50 [9]: 1750 mg/kg; dose excreted at 24 h [10]: 41%; half-life [12]: 1.5 h; Cmax [14]: 19000 ng/mL; AUC (Mus musculus [15]): 40; ED50 (Mus musculus [16]): 2.7 mg/kg; half-life [17]: 1.28 h; ED50 (Mus musculus [18]): 0.2 mg/kg; LD50 [19]: 125 mg/kg; AUC (Mus musculus [20]): 26; ED50 (Mus musculus [21]): 0.9 mg/kg
O=C(O)c1cn(C2CC2)c2cc(N3CCNCC3)c(F)cc2c1=O [CIPROFLOXACIN]	3.9 mg/kg	0.25 µg/mL (≈ 0.754 µM)	–	1 µg/mL (≈ 3.02 µM)	–	0.03 µg/mL (≈ 0.0905 µM)	0.008 µg/mL (≈ 0.0241 µM)	> 50 mg/kg	0.008 µg/mL (≈ 0.0241 µM)	12.5 mg/kg	0.5 µg/mL (≈ 1.51 µM)	–	1.3 mg/kg	–	0.06 µg/mL (≈ 0.181 µM)	28.7 mg/kg	0.06 µg/mL (≈ 0.181 µM)	–	6000 ng/mL	30%	Cmax [14]: 22000 ng/mL; ED50 (Mus musculus [16]): 2.6 mg/kg; UR (Mus musculus [22]): 25%; ED50 (Mus musculus [18]): 0.05 mg/kg; ED50 (Mus musculus [21]): 1.4 mg/kg
